Source: patent publication US11517575B2, “Use of minaprine to reduce tumor growth” (Institut Gustave-Roussy, priority 2019, dated 2022)
Peptide text beside a SMILES is read from it. * marks the point of attachment. Cbz = O=C(OCc1ccccc1)*; CH2F = FC*

System: HCT116 cells
Test: Cell death profiling by quantitative flow imaging of irradiated/non-irradiated co-cultures with death effector inhibitors
Assay type: cell-based, human
Details: 4 Gy, 24 h co-culture; for PS exposure on outer plasma membrane of irradiated CMFDA+ cells: Rosco 10 μM; for engulfment of neighboring cells by gamma-irradiated CMFDA+ cells (cell-in-cell structures): Y27632 30 μM
Description: FIG. 2 Detection of γ-irradiation-elicited cell autonomous death modalities by quantitative imaging flow-cytometry. (A-E) Detection and quantification of plasma membrane integrity loss and PS exposure observed after 24 hour co-culture of untreated (red/dark grey) CMTMR-labeled HCT116 cells and untreated (green/light grey) CMFDA-labeled HCT116 cells (A, C-E), of untreated (red/dark grey) CMTMR-labeled HCT116 cells and untreated (green/light grey) CMFDA-labeled HCT116 cells that have been extemporally mixed (C-E) or after 24 hour co-culture of untreated (red/dark grey) […] HCT116 cells with (green/light grey) CMFDA-labeled HCT116 cells (green) that have been irradiated with 4 grays of γ-ionizing radiation (B-E). The co-cultures have been performed in presence or absence of the indicated pharmacological death effector inhibitors. The detection of plasma membrane integrity (with DRAQ7) and PS exposure (with BV786-streptavidin/Annexin V biotin) have been analyzed for the untreated (red/dark grey) CMTMR^+ HCT116 cells, for untreated (green/light grey) CMFDA^+ HCT116 cells, for treated (green/light grey) CMFDA^+ HCT116 cells and for total cell population (CMTMR^+ or CMFDA^+ HCT116 cells). Representative dot plots (A,B) and quantitative data (C-E) are shown (means±SEM, n=3). (F,G) Representative cell cycle distributions of untreated (red/dark grey) CMTMR^+ HCT116 cells, untreated (green/light grey) CMFDA^+ HCT116 cells, treated (green/light grey) CMFDA^+ HCT116 cells and for total cell population (CMTMR^+ or CMFDA^+ HCT116 cells) obtained after 24 hour co-culture of untreated (red/dark grey) CMTMR-labeled HCT116 cells with untreated (green/light grey) CMFDA-labeled HCT116 cells (F, H-J), of untreated (red/dark grey) CMTMR-labeled HCT116 cells and untreated (green/light grey) CMFDA-labeled HCT116 cells that have been extemporally mixed (H-J) or after 24 hour co-culture of untreated (red/dark grey) CMTM-labeled HCT116 cells with (green/light grey) CMFDA-labeled HCT116 cells (green/light grey) that have been irradiated with 4 grays of γ-ionizing radiation (G-J) are shown. Quantitative data of cell cycle analysis are shown in (H-J) (means±SEM, n=3). * or # or $ represents p<0.05, ## or $$ p<0.01, *** or ###p<0.001.
FIG. 3 Detection of γ-irradiation-elicited non-cell autonomous death modalities by quantitative imaging flow-cytometry and confocal fluorescence microscopy. (A-G) Cell-in-cell structures and target cell degradation were determined by quantitative imaging (A-C) and confocal fluorescent microscopy (D-G) after 24 hour co-culture of untreated (red/dark grey) CMTM-labeled HCT116 cells with (green/light grey) CMFDA-labeled HCT116 cells that have been irradiated with 4 grays of γ-ionizing radiation (A), coculture of untreated (red/dark grey) CMTMR-labeled HCT116 cells with untreated (green/light grey) CMFDA-labeled HCT116 cells (B, C) or on CMTMR labeled (red/dark grey) HCT116 cells and untreated (green/light grey) CMFDA-labeled HCT116 cells that have been extemporally mixed (B, C). As previously described, cells have been sequentially labeled after co-cultures with specific fluorescent probes like BV786-streptavidin-Annexin V biotin, DRAQ7, and Hoechst 33342. Then, (red/dark grey) CMTMR-labeled HCT116 cells internalizing (green/light grey) CMFDA-labeled HCT116 cells (noted R(G)), and (green/light grey) CMFDA-labeled HCT116 cells internalizing (red/dark grey) CMTMR-labeled HCT116 cells (noted G(R)) were detected. Representative images are shown in (A) (scale, 20 μm). Frequencies of Cell-in-Cell structures (B) and target cell degradation (C) are reported (means±SEM, n=3). Representative confocal images of cell-in-cell structures (white arrow) (D) and target cell degradation (white dotted arrow) (E) detected during co-culture of untreated (red) CMTMR-labeled HCT116 cells with untreated or γ-irradiated (green) CMFDA-labeled cells are shown (scale bar=10 μm). […]

Row | SMILES | PS exposure on outer plasma membrane of irradiated CMFDA+ cells (ZVAD 100 μM) | engulfment of neighboring cells by gamma-irradiated CMFDA+ cells (cell-in-cell structures) (ZVAD 100 μM) | cellular degradation of engulfed CMTMR+ cells (ZVAD 100 μM, YVAD 100 μM) | frequency of dying cells (AnnexinV+DRAQ7- and DRAQ7+) (total, non-irradiated CMTMR+ and irradiated CMFDA+ cells, BafA1 50 nM)
1 | CC[C@H](CO)Nc1nc(NCc2ccccc2)c2ncn(C(C)C)c2n1 [roscovitine, Roscovitine] | inhibited the exposure of PS |  |  | 
2 | C[C@@H](N)[C@H]1CC[C@H](C(=O)Nc2ccncc2)CC1 [Y27632] |  | repressed |  | 
3 | COC(=O)CC(NC(=O)C(C)NC(=O)C(NC(=O)OCc1ccccc1)C(C)C)C(=O)CF (stereo not drawn) [Z-VAD-fmk, Benzyloxycarbonyl-Val-Ala-Asp(OMe)-fluoromethylketone] (Cbz-Val-Ala-Asp(OMe)-CH2F; configuration not given here) | inhibited the exposure of PS | not affected | significantly reduced | 
4 | CO/C1=C\C(C)=C\[C@@H](C)[C@@H](O)[C@@H](C)C/C(C)=C/C=C/[C@H](OC)[C@@H]([C@@H](C)[C@@H](O)[C@H](C)[C@@]2(O)C[C@@H](O)[C@H](C)[C@@H](C(C)C)O2)OC1=O [bafilomycin A1, Bafilomycin A1] |  |  |  | increased the frequency of dying cells
